Counter-ions that a name gives are not always drawn.
Experiments:
[1] = Metabolic stability in liver microsomes (intrinsic clearance); format: in vitro ADME; conditions: human, pH 7.4, HLM
Experimental: The rate of biotransformation can be measured as either metabolite(s) formation or the rate of disappearance of the parent compound. The experimental design involves incubation of low concentrations of substrate (usually 1.0 μM) with liver microsomes (usually 0.5 mg/ml) and taking out aliquotes at varying time points (usually 0, 5, 10, 15, 20, 30, 40 min.). The test compound is usually dissolved in DMSO. The DMSO concentration in the incubation mixture is usually 0.1% or less since more solvent can drastically reduce the activities of some CYP450s. Incubations are done in 100 mM potassium phosphate buffer, pH 7.4 and at 37° C. Acetonitrile or methanol is used to stop the reaction. The parent compound is analysed by HPLC-MS. From the calculated half-life, t1/2, the intrinsic clearance, Clint, is estimated by taking microsomal protein concentration and liver weight into account.

human NK1 receptor = target: T1, human NK1 receptor (Homo sapiens, UniProt P25103); assay: FLIPR assay, inhibition of human NK1 receptor activation (intracellular Ca2+ increase); format: cell-based; conditions: CHO cells with human NK1 receptor, agonist Substance P; pKB converted from IC50
T1 construct: expressed in transfected cells; cDNA in pRcCMV
T1 sequence (P25103 whole entry): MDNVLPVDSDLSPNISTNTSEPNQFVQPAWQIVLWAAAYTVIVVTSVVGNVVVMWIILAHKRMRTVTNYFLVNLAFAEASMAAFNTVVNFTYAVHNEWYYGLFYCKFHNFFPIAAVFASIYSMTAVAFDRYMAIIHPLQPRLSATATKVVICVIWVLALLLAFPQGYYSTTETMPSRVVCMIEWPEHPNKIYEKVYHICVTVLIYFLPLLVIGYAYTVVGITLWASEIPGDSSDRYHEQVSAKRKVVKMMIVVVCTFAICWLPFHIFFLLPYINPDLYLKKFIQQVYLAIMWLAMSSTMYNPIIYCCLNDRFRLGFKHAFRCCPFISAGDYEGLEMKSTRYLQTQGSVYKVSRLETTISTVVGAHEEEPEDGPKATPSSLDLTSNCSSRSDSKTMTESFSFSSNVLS
Experimental: (§1) Chinese Hamster Ovary (CHO) K1 cells (obtained from ATCC) were stably transfected with the human NK2 receptor (hNK2R cDNA in pRc/CMV, Invitrogen) or the human NK3 receptor (hNK3R in pcDNA 3.1/Hygro (+)/IRES/CD8, Invitrogen vector modified at AstraZeneca EST-Bio UK, Alderley Park). The cells were transfected with the cationic lipid reagent LIPOFECTAMINE™ (Invitrogen) and selection was performed with Geneticin (G418, Invitrogen) at 1 mg/ml for the hNK2R transfected cells and with Hygromycin (Invitrogen) at 500 μg/ml for the hNK3R transfected cells. Single cell clones were collected by aid of Fluorescence Activated Cell Sorter (FACS), tested for functionality in a FLIPR assay (see below), expanded in culture and cryopreserved for future use. CHO cells stably transfected with human NK1 receptors originates from AstraZeneca R&D, Wilmington USA. Human NK1 receptor cDNA (obtained from RNA-PCR from lung tissue) was subcloned into pRcCMV (Invitrogen). Transfection was performed by Calcium Phosphate and selection with 1 mg/ml G418. […]
(§2) The activity of a compound of the invention to inhibit NK1/NK2/NK3 receptor activation measured as NK1/NK2/NK3 receptor mediated increase in intracellular Ca^2+ was assessed by the following procedure: […]

CYP3A4 = CYP3A4 (Homo sapiens, UniProt P08684); assay: CYP3A4 inhibition assay (Bapiro et al.); format: in vitro ADME
Sequence of CYP3A4 (P08684 whole entry): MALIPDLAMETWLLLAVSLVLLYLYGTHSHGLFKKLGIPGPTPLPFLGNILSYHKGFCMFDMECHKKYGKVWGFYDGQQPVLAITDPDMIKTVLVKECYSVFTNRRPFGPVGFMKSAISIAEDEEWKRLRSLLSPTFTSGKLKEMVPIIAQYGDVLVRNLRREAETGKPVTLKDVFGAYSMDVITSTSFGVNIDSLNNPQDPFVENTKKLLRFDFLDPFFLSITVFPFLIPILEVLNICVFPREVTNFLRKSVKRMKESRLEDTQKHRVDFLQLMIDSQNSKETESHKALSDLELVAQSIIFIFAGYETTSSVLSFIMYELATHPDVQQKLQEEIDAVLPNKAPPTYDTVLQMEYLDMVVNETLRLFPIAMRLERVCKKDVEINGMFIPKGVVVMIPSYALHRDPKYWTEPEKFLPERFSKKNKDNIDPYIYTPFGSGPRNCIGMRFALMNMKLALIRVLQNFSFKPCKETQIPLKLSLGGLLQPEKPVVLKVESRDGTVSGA
Source text: It is well known that severe problems such as toxicity may occur if plasma levels of one medication are altered by the co-administration of another drug. […] CYP (cytochrome P450) 3A4 is the most important enzyme in the human liver as a majority of oxidised drugs have been biotransformed by this enzyme. Accordingly, it is undesirable to employ a medication having a significant degree of such liver enzyme inhibiting properties. […] Thus, there is a need for a novel NK receptor antagonist with improved pharmacokinetic properties. The present invention provides compounds with CYP3A4 enzyme inhibiting properties at a low level, as comparatively high IC50 values are obtained in a CYP3A4 inhibiting assay. Said method for determining CYP3A4 inhibition is described in Bapiro et al; Drug Metab. Dispos. 29, 30-35 (2001).
The IC50 values tested according to Bapiro et al; Drug Metab. Dispos. 29, 30-35 (2001) were generally greater than 15 μM.

human NK3 receptor = target: T2, human NK3 receptor (Homo sapiens, UniProt P29371); assay: FLIPR assay, inhibition of human NK3 receptor activation (intracellular Ca2+ increase); format: cell-based; conditions: CHO cells with human NK3 receptor, agonist Pro-7-NKB; pKB converted from IC50
T2 construct: expressed in transfected cells; hNK3R in pcDNA 3.1/Hygro (+)/IRES/CD8
T2 sequence (P29371 1-465): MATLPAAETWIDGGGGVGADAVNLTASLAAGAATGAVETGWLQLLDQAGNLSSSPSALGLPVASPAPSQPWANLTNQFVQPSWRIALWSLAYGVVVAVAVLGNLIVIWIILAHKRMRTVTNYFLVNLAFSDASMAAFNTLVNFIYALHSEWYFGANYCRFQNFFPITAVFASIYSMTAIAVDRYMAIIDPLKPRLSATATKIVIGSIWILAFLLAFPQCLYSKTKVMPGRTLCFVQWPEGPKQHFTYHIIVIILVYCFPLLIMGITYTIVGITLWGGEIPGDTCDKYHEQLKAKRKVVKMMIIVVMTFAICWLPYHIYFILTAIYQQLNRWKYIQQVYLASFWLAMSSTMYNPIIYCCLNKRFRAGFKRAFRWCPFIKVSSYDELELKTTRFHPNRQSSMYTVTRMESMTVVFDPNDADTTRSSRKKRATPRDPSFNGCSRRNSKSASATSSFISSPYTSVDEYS
Experimental: as §1, §2

human NK2 receptor = target: T3, human NK2 receptor (Homo sapiens, UniProt P21452); assay: FLIPR assay, inhibition of human NK2 receptor activation (intracellular Ca2+ increase); format: cell-based; conditions: CHO cells with human NK2 receptor, agonist NKA; pKB converted from IC50
T3 construct: expressed in transfected cells; hNK2R cDNA in pRc/CMV
T3 sequence (P21452 1-398): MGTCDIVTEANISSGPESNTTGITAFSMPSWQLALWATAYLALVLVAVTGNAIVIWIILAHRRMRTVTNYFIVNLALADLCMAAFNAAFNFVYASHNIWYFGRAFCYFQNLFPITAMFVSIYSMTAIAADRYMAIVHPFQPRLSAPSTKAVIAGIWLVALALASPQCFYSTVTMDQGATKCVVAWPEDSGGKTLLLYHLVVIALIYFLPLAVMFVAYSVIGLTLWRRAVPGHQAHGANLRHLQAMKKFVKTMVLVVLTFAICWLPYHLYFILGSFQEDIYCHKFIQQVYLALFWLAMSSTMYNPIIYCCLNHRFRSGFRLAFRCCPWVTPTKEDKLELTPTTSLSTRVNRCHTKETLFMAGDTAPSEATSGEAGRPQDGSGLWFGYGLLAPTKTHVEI
Experimental: as §1, §2

[2] = target: hERG-encoded potassium channel (Homo sapiens, UniProt Q12809); assay: Activity against hERG (planar-array-based voltage clamp, Kiss et al.); format: cell-based
Sequence of hERG-encoded potassium channel (Q12809 whole entry): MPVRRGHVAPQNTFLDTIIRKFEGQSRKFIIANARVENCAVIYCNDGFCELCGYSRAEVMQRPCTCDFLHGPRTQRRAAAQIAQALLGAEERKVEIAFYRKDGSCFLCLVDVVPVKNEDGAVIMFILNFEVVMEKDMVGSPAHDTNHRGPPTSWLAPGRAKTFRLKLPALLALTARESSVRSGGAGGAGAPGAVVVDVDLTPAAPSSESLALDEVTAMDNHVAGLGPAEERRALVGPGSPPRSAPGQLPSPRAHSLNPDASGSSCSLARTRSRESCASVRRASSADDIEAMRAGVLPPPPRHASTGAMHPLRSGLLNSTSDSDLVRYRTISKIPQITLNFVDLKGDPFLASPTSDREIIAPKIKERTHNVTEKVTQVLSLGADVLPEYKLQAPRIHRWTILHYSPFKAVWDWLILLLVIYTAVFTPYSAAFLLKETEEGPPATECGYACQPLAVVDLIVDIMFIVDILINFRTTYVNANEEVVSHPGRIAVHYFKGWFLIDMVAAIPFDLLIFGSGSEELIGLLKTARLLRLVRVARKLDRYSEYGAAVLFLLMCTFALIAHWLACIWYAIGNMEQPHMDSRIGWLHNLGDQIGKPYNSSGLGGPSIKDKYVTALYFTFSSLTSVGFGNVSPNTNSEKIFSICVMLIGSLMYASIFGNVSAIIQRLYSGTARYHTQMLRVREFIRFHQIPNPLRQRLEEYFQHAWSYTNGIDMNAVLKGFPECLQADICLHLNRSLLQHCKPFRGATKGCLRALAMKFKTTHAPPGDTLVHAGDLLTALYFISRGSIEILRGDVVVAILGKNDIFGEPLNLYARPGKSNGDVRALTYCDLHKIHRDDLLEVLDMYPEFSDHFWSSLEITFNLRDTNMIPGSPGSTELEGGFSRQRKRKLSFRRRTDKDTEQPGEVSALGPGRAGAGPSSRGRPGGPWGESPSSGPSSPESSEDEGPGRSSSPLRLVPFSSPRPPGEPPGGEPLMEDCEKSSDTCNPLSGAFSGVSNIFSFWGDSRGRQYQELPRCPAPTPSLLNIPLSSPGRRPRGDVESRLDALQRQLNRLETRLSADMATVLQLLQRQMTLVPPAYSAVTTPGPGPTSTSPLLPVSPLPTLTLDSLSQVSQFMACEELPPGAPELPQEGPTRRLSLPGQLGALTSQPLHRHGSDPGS
Source text: The activity of compounds according to formula I against the hERG-encoded potassium channel can be determined according to Kiss L, et al. Assay Drug Dev Technol. 1 (2003), 127-35: “High throughput ion-channel pharmacology: planar-array-based voltage clamp”.

[3] = test system: Human Neurokinin-2 (NK2) Receptor; conditions: literature statement; cited from earlier work

SMILES	microsomal CLint at 1 μM [1] [µL/min/mg]	Kb (human NK1 receptor) [nM]	IC50 (CYP3A4) [nM]	Kb (human NK3 receptor) [nM]	Kb (human NK2 receptor) [nM]	IC50 [2] [nM]	functional NK2 receptor antagonistic properties [3]
CN(C[C@@H](CCN1CC(N2CCN3C(=O)CC[C@@H]3C2)C1)c1ccc(F)cc1)C(=O)c1cc(Br)cc(C(F)(F)F)c1 [Ex 1, 3-Bromo-N-((2S)-2-(4-fluorophenyl)-4-{3-[(8aR)-6-oxohexahydropyrrolo[1,2-a]pyrazin-2(1H)-yl]azetidin-1-yl}butyl)-N-methyl-5-(trifluoromethyl)benzamide dihydrochloride]	14	2	> 50000	3.16	15.8	12400	–
CN(CC(CCN1CC(N2CCOCC2)C1)c1ccc(Cl)c(Cl)c1)C(=O)c1ccccc1 (stereo not shown) [N-[2-(3,4-dichlorophenyl)-4-(3-morpholin-4-ylazetidin-1-yl)butyl]-N-methylbenzamide]	–	–	–	–	–	–	possess functional NK2 receptor antagonistic properties
